# Assays:
# P-gp = assay: PET imaging with P-gp blocking by tariquidar
# H1975 xenograft [1] = assay: Biodistribution studies, H1975 tumor bearing mice; type: in vivo, nude mice (nu/nu); settings: 5 minutes p.i.
# Experimental: (§1) The mice were sacrificed and dissected at 5, 30, 60 and 120 minutes post-injection. Blood, urine, skin, left tumor, right tumor, muscle, heart, lung, liver, kidney and brain were collected, weighed and counted for radioactivity in a Wallac Compugamma 1210 counter (n=3 for each time point). Biodistribution data are expressed as percentage of injected dose per gram (% ID/g) tissue for each organ (FIG. 2).
# [2] = PET imaging with cold afatinib added to the tracer injection; type: in vivo, mice; settings: cold dose of 100 ng afatinib added
# Text: Showing that imaging of the tumor should be done at high specific activity.
# HCC827 xenograft = assay: Biodistribution studies, HCC827 tumor bearing mice; type: in vivo, nude mice (nu/nu); settings: 5 minutes p.i.
# Experimental: as §1
# [3] = tested on: A549, H1975 or HCC827 xenografts; assay: Biodistribution studies, statements for all investigated tumor types; type: in vivo, nude mice (nu/nu)
# Experimental: as §1
# A549 xenograft [4] = assay: Biodistribution studies, A549 tumor bearing mice; type: in vivo, nude mice (nu/nu); settings: 5 minutes p.i.
# Experimental: as §1
# A549 xenograft [5] = assay: Dynamic PET imaging, A549 xenograft; type: in vivo, nude mice; settings: A549 (insensitive), no blocking
# Experimental: (§2) Dynamic PET imaging was performed on three cancer xenograft (A549, H1975 and HCC827) lines in nude mice. Each mouse (n=3) carried one tumor of the same cancer xenograft line, which were located on the left or right flank. Imaging was performed for a duration of 120 min using a double-LSO/LYSO layer high-resolution research tomograph (HRRT; CTI/Siemens, Knoxville, Tenn., USA). The mice were anesthetized with 4% and 2% isoflurane in 1 L·min^−1 oxygen for induction and maintenance, respectively. First, for attenuation and scatter correction, a transmission scan was acquired using a 740-MBq two-dimensional (2D) fan-collimated ^137Cs (662 keV) moving point source. […] Positron emission scans were acquired in list mode and rebinned into the following frame sequence: 10×60 s, 4×300 s, and 9×600 s. After 120 min, [^18F]FDG was administered (I.V. ocular plexus) to the mice followed by scanning for another 60 min. Following corrections for decay, dead time, scatter and randoms, scans were reconstructed using an iterative 3D ordered-subsets weighted least-squares analysis (3D-OSWLS). Point source resolution varied across the field of view from approximately 2.3 to 3.2-mm full width at half maximum in the transaxial direction and from 2.5 to 3.4 mm in the axial direction. Post-filtering was not performed after reconstruction.
# [6] = Metabolite analysis in plasma after injection of tracer; type: in vivo, Balb/C mice; settings: for Parent (%): plasma
# Experimental: The mice were sacrificed at 15 (n=4) and 45 (n=4) min post-injection. At these time points, about 1.5 mL of blood was collected via a heart puncture. […] The cartridge was washed with 5 mL of H2O to collect polar radioactive metabolites. Thereafter, the tC2 Sep-Pak cartridge was eluted with 2 mL of MeOH and 1 mL of H2O to collect the mixture of apolar metabolites. […] HPLC was performed on a Dionex Ultimate 3000 system, equipped with a 1 mL loop. As a stationary phase a Phenomenex Gemini C18, 250×10 mm, 5 μm was used.
# H1975 xenograft [7] = assay: Dynamic PET imaging, H1975 xenograft; type: in vivo, nude mice; settings: H1975 (insensitive), no blocking
# Experimental: as §2
smiles,measurement,setting,value
"CN(C)C/C=C/C(=O)Nc1cc2c(Nc3ccc([18F])c(Cl)c3)ncnc2cc1O[C@H]1CCOC1 [[^18F]afatinib, [^18F](S,E)-N-(4-((3-chloro-4-fluorophenyl)amino)-7-((tetrahydrofuran-3-yl)oxy)quinazolin-6-yl)-4-(dimethylamino)but-2-enamide]",brain uptake,P-gp; P-gp active (no block),washed out from the brain
same,brain uptake,P-gp; P-gp blocked with tariquidar,remains in the brain
same,P-gp substrate status,P-gp; absolute tumor uptake increased when P-gp blocked,substrates
same,washout after P-gp blocking,"P-gp; tumor, tariquidar block",hardly shows any washout
same,blood level of the tracer,H1975 xenograft [1],1.59 % ID/g
same,tumor uptake with cold afatinib co-injected,[2],reduced to background levels
same,blood level of the tracer,HCC827 xenograft,1.56 % ID/g
same,uptake in the metabolic organs (kidney and liver),"[3]; mouse, in vivo",rapid and high uptake
same,activity remained in the tumor,"[3]; tumors, 120 minutes p.i.",around 1 % ID/g
same,blood level of the tracer,A549 xenograft [4],2.17 % ID/g
same,uptake in tumor compared to background,A549 xenograft [5],hardly an increase of uptake in the tumors compared to the background
same,in vivo stability of the tracer,[6]; metabolic profile of table 1,excellent in vivo stability
same,Parent (%),[6]; 15 min p.i.,87.5 ± 0.8%
same,Parent (%),[6]; 45 min p.i.,83.3 ± 1.3%
same,uptake in tumor compared to background,H1975 xenograft [7],hardly an increase of uptake in the tumors compared to the background
